From patent US20120052025A1 (Colgate-Palmolive Company, priority 2009, published 2012)
Values after ≈ are worked out from the molar mass of the structure shown.

What was measured:
A. actinomycetemcomitans = assay: Minimum inhibitory concentration; type: cell-based; conditions: Aggregatibacter actinomycetemcomitans, Gram Negative, ethanol vehicle
Excerpt: (§1) The minimum inhibitory concentration for COMPOUND 1 against common oral bacteria is found to be as follows. Ethanol is used as vehicle.

S. sobrinus = assay: Minimum inhibitory concentration; type: cell-based; conditions: Streptococcus sobrinus, Gram Positive, ethanol vehicle
Excerpt: as §1

S. mutans = assay: Minimum inhibitory concentration; type: cell-based; conditions: Streptococcus mutans, Gram Positive, ethanol vehicle
Excerpt: as §1

A. naeslundii = assay: Minimum inhibitory concentration; type: cell-based; conditions: Actinomyces naeslundii, Gram Positive, ethanol vehicle
Excerpt: as §1

L. casei = assay: Minimum inhibitory concentration; type: cell-based; conditions: Lacticaseibacillus casei, Gram Positive, ethanol vehicle
Excerpt: as §1

P. intermedia = assay: Minimum inhibitory concentration; type: cell-based; conditions: Prevotella intermedia, Gram Negative, ethanol vehicle
Excerpt: as §1

F. nucleatum = assay: Minimum inhibitory concentration; type: cell-based; conditions: Fusobacterium nucleatum, Gram Negative, ethanol vehicle
Excerpt: as §1

V. parvula = assay: Minimum inhibitory concentration; type: cell-based; conditions: Veillonella parvula, Gram Negative, ethanol vehicle
Excerpt: as §1

S. oralis = assay: Minimum inhibitory concentration; type: cell-based; conditions: Streptococcus oralis, Gram Positive, ethanol vehicle
Excerpt: as §1

S. gordonii = assay: Minimum inhibitory concentration; type: cell-based; conditions: Streptococcus gordonii, Gram Positive, ethanol vehicle
Excerpt: as §1

P. gingivalis = assay: Minimum inhibitory concentration; type: cell-based; conditions: Porphyromonas gingivalis, Gram Negative, ethanol vehicle
Excerpt: as §1

S. sanguinis = assay: Minimum inhibitory concentration; type: cell-based; conditions: Streptococcus sanguinis, Gram Positive, ethanol vehicle
Excerpt: as §1

A. viscosus = assay: Minimum inhibitory concentration; type: cell-based; conditions: Actinomyces viscosus, Gram Positive, ethanol vehicle
Excerpt: as §1

[1] = Decomposition in buffered vs unbuffered pH 7.2 formulation; type: physicochemical; conditions: pH 7.2, phosphate buffer, 14 days
Experimental: Two pH 7.2 formulations of Compound 1 are prepared, one with phosphate buffer, one without, and the decomposition of Compound 1 is measured over 14 days. While measurable decomposition is seen in both formulations, the slope of the rate of decomposition Compound 1 in the buffered formulation is decreased by 3.3 fold compared to that of the unbuffered formulation.

[2] = Stability of formulations with and without antioxidants; type: physicochemical
Excerpt: The stability of three formulations of Compound 1 are compared, the formulations being identical except that one is without any antioxidants, one contains α-tocopherol, and the third contains sodium ascorbylphosphate.

[3] = type: physicochemical
Excerpt: Although some borinic esters are effective as antibacterial agents, incorporating borinic esters into oral care compositions presents difficulties, as borinic esters have proven to be unstable when added to aqueous compositions. For example, borinic esters may hydrolyze and decompose, e.g., in oral care compositions. Additionally, borinic esters may be insoluble in aqueous compositions. […] There remains a need to develop compositions and methods to incorporate borinic acid derivatives stably in oral care compositions.
The poor solubility of Compound A presents some formulation challenges. Its solubility in water is less than 100 ppm, and its solubility in flavor oils (often used to solubilize actives) is less than 0.5%. We have discovered that co-polymers of polyethylene glycol and polypropylene glycol are able to solubilize Compound 1. Fluraflo L4370 (BASF) is able to solubilize 1% Compound 1 (% w/w). It is necessary to stir the solution over low heat to fully solubilize the active. The resulting solution is cloudy, reflecting the nature of the Fluraflo L4370 itself. The solution of 1% Compound 1 in Fluraflo L4370 is diluted 1:1 with 1.5% SLS in water to produce a clear solution, composed of 0.5% AN0128, 0.75% SLS, 50% Fluraflo L4370 in water Similar results are achieved using Fluracare L1220.
We further discovered that low molecular weight polyethylene glycol 300 (PEG 300) (Dow Chemical Company) solubilizes 10% Compound 1 (% w/w). It is necessary to stir the solution over low heat to fully solubilize the active. The resulting solution is clear with a slight yellow tint due to the color of Compound 1. […] Therefore, we conclude that solvents containing oligomers and/or polymers of ethylene glycol are capable of solubilizing Compound 1 and are suitable for formulation.
(§2) The properties of Compound 1 in conjunction with other excipients are further evaluated by diluting a solution of Compound 1 in PEG 300 into other solvents such as propylene glycol and glycerin at varying ratios. A solution containing 1% Compound 1 in 19% PEG 300 and 80% propylene glycol is clear. This solution is then diluted 1:1 with 1% SLS in water to produce a solution composed of 0.5% Compound 1, 0.5% SLS, 9.5% PEG 300 and 40% propylene glycol in water which is then tested in the biofilm disruption assay. The percent reduction achieved versus the negative control is 80%. […] Similar results are achieved with PEG and glycerin.

biofilm = assay: Biofilm disruption assay; type: cell-based
Experimental: The solution of 0.5% AN0128.0.75% SLS. 50% Fluraflo L4370 in water is then tested in a biofilm disruption assay.
A solution of 2% Compound 1 in PEG 300 is diluted 1:1 with 2% SLS in water to produce a solution composed of 1% Compound 1, 1% SLS, 50% PEG 300 in water which is then tested in a biofilm disruption assay.
as §2

SMILES: Cc1ccc([B-]2(c3ccc(C)c(Cl)c3)OC(=O)c3ncccc3[OH+]2)cc1Cl [Compound 1]
- MIC (A. actinomycetemcomitans): > 15.6 µg/mL
- MIC (S. sobrinus): 0.12 to 0.5 µg/mL (≈ 0.3 to 1.25 µM)
- MIC (S. mutans): 0.25 to 0.5 µg/mL (≈ 0.625 to 1.25 µM)
- MIC (A. naeslundii): 1 to 2 µg/mL (≈ 2.5 to 5 µM)
- MIC (L. casei): 2 to 3.9 µg/mL (≈ 5 to 9.75 µM)
- MIC (P. intermedia): 3.9 to 7.8 µg/mL (≈ 9.75 to 19.5 µM)
- MIC (F. nucleatum): 1 to 2 µg/mL (≈ 2.5 to 5 µM)
- MIC (V. parvula): 7.8 µg/mL (≈ 19.5 µM)
- MIC (S. oralis): 0.12 to 0.25 µg/mL (≈ 0.3 to 0.625 µM)
- MIC (S. gordonii): 0.12 to 0.25 µg/mL (≈ 0.3 to 0.625 µM)
- MIC (P. gingivalis): ≤ 0.12 µg/mL
- MIC (S. sanguinis): 0.25 to 0.5 µg/mL (≈ 0.625 to 1.25 µM)
- MIC (A. viscosus): 1 µg/mL (≈ 2.5 µM)
- decrease of the slope of the rate of decomposition, buffered vs unbuffered formulation [1]: 3.3 fold
- decomposition in formulation ([2]; formulation containing sodium ascorbylphosphate vs without antioxidants): significantly reduced
- decomposition in formulation ([2]; formulation containing α-tocopherol vs without antioxidants): even less
- amount of Compound 1 solubilized by Fluraflo L4370 [3]: 1 % w/w
- amount of Compound 1 solubilized by PEG 300 [3]: 10 % w/w
- solubility in oils [3]: less than 0.5%
- solubility in water [3]: 100 ppm
- solubilization by PEG 600 [3]: can solubilize
- appearance of solution ([3]; 1% Compound 1 in 19% PEG 300 and 80% propylene glycol): clear
- percent reduction versus the negative control (biofilm; solution of 0.5% AN0128, 0.75% SLS, 50% Fluraflo L4370 in water): 65%
- percent reduction versus the negative control (biofilm; solution of 0.5% Compound 1, 0.5% SLS, 9.5% PEG 300 and 40% propylene glycol in water): 80%
- percent reduction versus the negative control (biofilm; solution of 1% Compound 1, 1% SLS, 50% PEG 300 in water): 76%
